Publication PMC7424068, “Design, Synthesis, and Biological Evaluation of Novel Thiazolidinone-Containing Quinoxaline-1,4-di-N-oxides as Antimycobacterial and Antifungal Agents” (Frontiers in Chemistry, 2020)
In brackets after ≈: the same amount, converted by molar mass. Like-named read-outs stand apart in the source and are kept apart here.

Columns and labels:
Mtb H37Rv (ATCC27294) = test: Antimycobacterial activity, microplate Alamar blue assay (MABA); format: cell-based, Mycobacterium tuberculosis; details: for antimycobacterial activity (in words): Mtb strain H37Rv; for MIC: Mycobacterium tuberculosis, Mtb H37Rv
VERO cell line = test: Cytotoxicity MTT assay; format: cell-based; details: Chlorocebus sabaeus, cytotoxicity in VERO cells, 72 h
Protocol: VERO cells (2 × 10^4 cells) were seeded into 96-well plates and incubated for 12 h. Serial dilutions of the compounds were mixed with the cell suspension in the plates. Both treated cells and blank and solvent controls were incubated for 72 h, followed by incubation with MTT (0.5 mg/mL) for another 4 h. The microplates were measured at 570 nm using a multimode reader (Infinite M200, Tecan). The percentage of viable cells was calculated as the mean with respect to the controls set to 100%. Triplicate wells were analyzed for each concentration. IC50 was defined as the concentration that reduced the viable cells by 50% compared to the untreated control cells. It was considered significant when the SI was more than 10.

C. albicans (ATCC90028) = test: Antifungal activity, broth microdilution; format: cell-based, Candida albicans
Protocol: (§1) All synthesized compounds and the positive control drugs amphotericin B and ketoconazole were tested for their in vitro antifungal activity. Antifungal activity was evaluated against four fungi, C. albicans (ATCC90028), C. tropicalis (ATCC7349), A. fumigatus (3.5352), and C. neoformans (2.3201), by broth microdilution according to the protocols from the NCCLS (Jiang et al., [2014]). Briefly, all tested compounds were dissolved in DMSO, and the solutions were diluted with fresh broth medium. All of the fungi-seeded broth (1 × 10^5 colony-forming units [CFU]/mL) were prepared in RPMI 1640 medium and added into the serially diluted drug solution. The tubes were incubated at 28°C, and the MIC (μg/mL) was recorded 72–96 h post-incubation. Broth control (without fungi), growth controls (with fungi and without drug), solvent (DMSO) control, and drug control for both test drugs and standard drugs were set under identical conditions. The minimum drug concentration in the tubes in which no apparent growth of the organism was observed represented the MIC of the compounds.

A. fumigatus (3.5352) = test: Antifungal activity, broth microdilution; format: cell-based; details: Aspergillus fumigatus
Protocol: as §1

C. neoformans (2.3201) = test: Antifungal activity, broth microdilution; format: cell-based; details: Cryptococcus neoformans
Protocol: as §1

C. tropicalis (ATCC7349) = test: Antifungal activity, broth microdilution; format: cell-based; details: Candida tropicalis
Protocol: as §1

[1] = system: TB-infected macrophage model; test: Macrophage assay (TB-infected macrophage model); format: cell-based, Mycobacterium tuberculosis
[2] = system: Candida albicans, Candida tropicalis, Aspergillus fumigatus, and Cryptococcus neoformans; test: Antifungal activity, broth microdilution, stated for the four fungi together; format: cell-based; details: read-out: MIC (antifungal, over the four fungi)
Protocol: as §1

[3] = repeated in Table 5 for the 3D-QSAR models, read-out: MIC
[4] = experimental pMIC, Table 5, read-out: pMIC exp (converted)
[5] = Candida albicans ATCC 90028, read-out: MIC
[6] = A. fumigatus 3.5352, read-out: MIC
[7] = C. neoformans 2.3201, read-out: MIC
[8] = C. tropicalis ATCC 7349, read-out: MIC
[9] = C. albicans, C. tropicalis, A. fumigatus, C. neoformans together

For `Cc1ccc2c(c1)[n+]([O-])c(C1SCC(=O)N1c1ccc(F)cc1)c[n+]2[O-]` (stereo not shown) [2j, 7-CH3-2-(3′-P-fluorophenyl-4′(5H)-thiazolidinone)-quinoxaline-1,4-di-N-oxide], the “antimycobacterial activity (in words)” value (Mtb H37Rv (ATCC27294)) was “good antimycobacterial activity”, the MIC (Mtb H37Rv (ATCC27294); MABA assay, read-out: MIC) was 6.25 µg/mL and the MIC (Mtb H37Rv (ATCC27294); [3]) was 6.25 µg/mL. For the same compound, the MIC (Mtb H37Rv (ATCC27294); [4]) was 16.9 µM, the IC50 (VERO cell line) was 114 µg/mL (≈ 306 µM) and the MIC (C. albicans (ATCC90028); [5]) was 16 µg/mL (≈ 43.1 µM). The MIC (A. fumigatus (3.5352); [6]) was 32 µg/mL (≈ 86.2 µM), the MIC (C. neoformans (2.3201); [7]) was 16 µg/mL (≈ 43.1 µM) and the MIC (C. tropicalis (ATCC7349); [8]) was 8 µg/mL (≈ 21.5 µM). The melting point was 243 to 245 °C.
In the case of `Cc1ccc2c(c1)[n+]([O-])c(C1SCC(=O)N1c1ccc(Cl)cc1)c[n+]2[O-]` (stereo not shown) [2k, 7-CH3-2-(3′-P-chlorophenyl-4′(5H)-thiazolidinone)-quinoxaline-1,4-di-N-oxide], the “antimycobacterial activity (in words)” value (Mtb H37Rv (ATCC27294)) is reported as “good antimycobacterial activity”, the MIC (Mtb H37Rv (ATCC27294); MABA assay, read-out: MIC) is reported as no more than 3.13 µg/mL and the MIC (Mtb H37Rv (ATCC27294); [3]) is reported as 3.13 µg/mL. It also gave an MIC (Mtb H37Rv (ATCC27294); [4]) of 8.09 µM, an IC50 (VERO cell line) of 102 µg/mL (≈ 264 µM) and an MIC (C. albicans (ATCC90028); [5]) of 32 µg/mL (≈ 82.5 µM). The MIC (A. fumigatus (3.5352); [6]) was 32 µg/mL (≈ 82.5 µM), the MIC (C. neoformans (2.3201); [7]) was 32 µg/mL (≈ 82.5 µM) and the MIC (C. tropicalis (ATCC7349); [8]) was 16 µg/mL (≈ 41.3 µM). For the same compound, the melting point was 244 to 248 °C.
In the case of `O=C1CSC(c2c[n+]([O-])c3ccc(F)cc3[n+]2[O-])N1c1ccccc1` (stereo not shown) [2q, 7-F-2-(3′-phenyl-4′(5H)-thiazolidinone)-quinoxaline-1,4-di-N-oxide], the MIC (Mtb H37Rv (ATCC27294); MABA assay, read-out: MIC) is reported as 6.25 µg/mL, the MIC (Mtb H37Rv (ATCC27294); [3]) is reported as 6.25 µg/mL and the MIC (Mtb H37Rv (ATCC27294); [4]) is reported as 17.5 µM. The IC50 (VERO cell line) was 126 µg/mL (≈ 354 µM), the MIC (C. albicans (ATCC90028); [5]) was 8 µg/mL (≈ 22.4 µM) and the MIC (A. fumigatus (3.5352); [6]) was 16 µg/mL (≈ 44.8 µM). The MIC (C. neoformans (2.3201); [7]) was 16 µg/mL (≈ 44.8 µM), the MIC (C. tropicalis (ATCC7349); [8]) was 4 µg/mL (≈ 11.2 µM) and the melting point was 249 to 252 °C.
For `O=C1CSC(c2c[n+]([O-])c3ccc(F)cc3[n+]2[O-])N1c1ccc(F)cc1` (stereo not shown) [2t, 7-F-2-(3′-P-fluorophenyl-4′(5H)-thiazolidinone)-quinoxaline-1,4-di-N-oxide], the “antimycobacterial activity (in words)” value (Mtb H37Rv (ATCC27294)) was “good antimycobacterial activity”, the MIC (Mtb H37Rv (ATCC27294); MABA assay, read-out: MIC) was 1.56 µg/mL and the MIC (Mtb H37Rv (ATCC27294); [3]) was 1.56 µg/mL. It also gave an MIC (Mtb H37Rv (ATCC27294); [4]) of 4.16 µM, an IC50 (VERO cell line) of 101 µg/mL (≈ 269 µM) and an EC90 ([1]; Mycobacterium tuberculosis, Macrophage, 168 h, concentration causing 90% reduction in residual mycobacterial growth after 7 days) of 1.66 µg/mL (≈ 4.42 µM). The EC99 ([1]; concentration causing 99% reduction in residual mycobacterial growth after 7 days) was 5.25 µg/mL, the MIC (C. albicans (ATCC90028); [5]) was 4 µg/mL (≈ 10.7 µM) and the MIC (A. fumigatus (3.5352); [6]) was 4 µg/mL (≈ 10.7 µM). It also gave an MIC (C. neoformans (2.3201); [7]) of 4 µg/mL (≈ 10.7 µM), an MIC (C. tropicalis (ATCC7349); [8]) of 2 µg/mL (≈ 5.33 µM) and an MIC [2, 9] of 2 to 4 µg/mL (≈ 5.33 to 10.7 µM). It also gave a melting point of 250 to 253 °C.
In the case of `O=C1CSC(c2c[n+]([O-])c3ccc(Cl)cc3[n+]2[O-])N1c1ccccc1` (stereo not shown) [2v, 7-Cl-2-(3′-phenyl-4′(5H)-thiazolidinone)-quinoxaline-1,4-di-N-oxide], the MIC (Mtb H37Rv (ATCC27294); MABA assay, read-out: MIC) is reported as no more than 3.13 µg/mL, the MIC (Mtb H37Rv (ATCC27294); [3]) is reported as 3.13 µg/mL and the MIC (Mtb H37Rv (ATCC27294); [4]) is reported as 8.39 µM. For the same compound, the IC50 (VERO cell line) was 119 µg/mL (≈ 318 µM), the MIC (C. albicans (ATCC90028); [5]) was 8 µg/mL (≈ 21.4 µM) and the MIC (A. fumigatus (3.5352); [6]) was 4 µg/mL (≈ 10.7 µM). It also gave an MIC (C. neoformans (2.3201); [7]) of 8 µg/mL (≈ 21.4 µM), an MIC (C. tropicalis (ATCC7349); [8]) of 8 µg/mL (≈ 21.4 µM) and a melting point of 248 to 250 °C.
`Cc1ccc(N2C(=O)CSC2c2c[n+]([O-])c3ccc(Cl)cc3[n+]2[O-])cc1` (stereo not shown) [2w, 7-Cl-2-(3′-P-methylphenyl-4′(5H)-thiazolidinone)-quinoxaline-1,4-di-N-oxide] gave an MIC (Mtb H37Rv (ATCC27294); MABA assay, read-out: MIC) of 6.25 µg/mL, an MIC (Mtb H37Rv (ATCC27294); [3]) of 6.25 µg/mL and an MIC (Mtb H37Rv (ATCC27294); [4]) of 16.1 µM. For the same compound, the IC50 (VERO cell line) was 125 µg/mL (≈ 323 µM), the MIC (C. albicans (ATCC90028); [5]) was 8 µg/mL (≈ 20.6 µM) and the MIC (A. fumigatus (3.5352); [6]) was 8 µg/mL (≈ 20.6 µM). It also gave an MIC (C. neoformans (2.3201); [7]) of 4 µg/mL (≈ 10.3 µM), an MIC (C. tropicalis (ATCC7349); [8]) of 4 µg/mL (≈ 10.3 µM) and a melting point of 250 to 252 °C.
Compound `C[C@@H]1[C@H](O)[C@@H](C)/C=C/C=C/C=C/C=C/C=C/C=C/C=C/[C@H](O[C@@H]2O[C@H](C)[C@@H](O)[C@H](N)[C@@H]2O)C[C@@H]2O[C@](O)(C[C@@H](O)C[C@@H](O)[C@H](O)CC[C@@H](O)C[C@@H](O)CC(=O)O[C@H]1C)C[C@H](O)[C@H]2C(=O)O` [AMB, Amphotericin b, reference compound] has an MIC (C. albicans (ATCC90028); [5]) of 1 µg/mL (≈ 1.08 µM), an MIC (A. fumigatus (3.5352); [6]) of 0.5 µg/mL (≈ 0.541 µM) and an MIC (C. neoformans (2.3201); [7]) of 0.5 µg/mL (≈ 0.541 µM). The MIC (C. tropicalis (ATCC7349); [8]) was 2 µg/mL (≈ 2.16 µM) and the MIC [2, 9] was 0.25 to 2 µg/mL (≈ 0.271 to 2.16 µM).
For `CC(=O)N1CCN(c2ccc(OCC3COC(Cn4ccnc4)(c4ccc(Cl)cc4Cl)O3)cc2)CC1` (stereo not shown) [KCZ, Ketoconazole, reference compound], the MIC (C. albicans (ATCC90028); Candida albicans) was 0.25 µg/mL (≈ 0.47 µM), the MIC (A. fumigatus (3.5352)) was 0.5 µg/mL (≈ 0.941 µM) and the MIC (C. neoformans (2.3201)) was 0.25 µg/mL (≈ 0.47 µM). The MIC (C. tropicalis (ATCC7349)) was 0.5 µg/mL (≈ 0.941 µM) and the MIC [2] was 0.25 to 2 µg/mL (≈ 0.47 to 3.76 µM).
